Data published in patent US20070128719A1, “ISOLATION AND EXPANSION OF ANIMAL CELLS IN CELL CULTURES” (TissueTech, Inc., priority 2003, published 2007).
Each block holds one compound with its values, some of them ahead of it.

Experiments:
[1] = test system: TGF-β1 promoter; test: TGF-β promoter assay in human limbal epithelial cells; type: cell-based
Method: Human corneal fibroblasts were transiently transfected with the aforementioned adenoviral promoter constructs. […] 2, 2005 and entitled “Suppression Of TGF-B Activity By Amniotic Membrane Extracts, Compositions Thereof, And Methods For The Prevention And Suppression Of Scarring And Inflammation” in a dose-dependent manner (from 0.04 to 125 μg/ml) in human corneal fibroblasts. […] The suppressive effect of both AME and HA alone was lost after pretreatment with HAse. […] A similar result was obtained for TGF-βRII promoter activity.

[2] = test system: human limbal explants; test: Epithelial outgrowth from human limbal explants cultured on intact AM with kinase inhibitors; type: cell-based; details: for epithelial outgrowth: limbal explant on intact AM in SHEM, vs DMSO control
Method: Human AM was provided by Bio-Tissue (Miami, Fla.) and stored at −80° C. before use. AM was devitalized by freezing and thawing and washed three times with HBSS before being fastened onto a 30 mm culture insert, Millicel-CM (which generated an insert with 23 mm diameter covered by AM), and placed in a 6 well plate (Meller, D. and Tseng S C G, Invest Ophthalmol Vis Sci., 40:878-86, 1999).
After removal of excessive sclera, iris, corneal endothelium, conjunctiva, and Tenon's capsule, the limbal ring was separated by a 7.5 mm trephine from donor human corneas. Each limbal ring was rinsed 3 times with SHEM media. The limbal ring was then exposed for 10 min to 1.2 units/ml Dispase II in Mg^2+- and Ca^2+-free HBSS at 37° C. under 95% humidity and 5% CO2. Following three rinses with SHEM medium, each limbal ring was subdivided into two halves and each half further subdivided into 6 pieces of 1×1.5×2.5 mm explants. To eliminate variations of age, sex, and race, explants from the corresponding position of the same donor cornea were selected for the control and the experimental group, respectively. An explant was placed on the center of intact AM or plastic with the epithelial side facing up and cultured in SHEM medium. The experimental group was added with the inhibitor of desired concentration, while the control group was added with the same concentration of DMSO as the vehicle which was used to dissolve each inhibitor. The culture was maintained at 37° C. under 95% humidity and 5% CO2, the medium was changed every other day, and their outgrowth was monitored daily for 17 days using an inverted phase microscope (Nikon, Japan). The outgrowth area was digitized every other day by Adobe Photoshop 5.5 and analyzed by NIH ImageJ 1.30v (NIH, Bethesda, Md.).
All experiments were performed at least in triplicate. Summary data were reported as means±S.D., compiled and analyzed by MicroSoft Excel™ (MicroSoft, Redmont, Wash.). The mean and standard deviation were calculated for each group using the appropriate version of Student's unpaired t-test. Test results were reported as two-tailed p values, where p<0.05 was considered statistically significant.

[3] = test system: murine limbal epithelial cells; test: Clonal expansion of single cell expanded murine limbal epithelial cells in KSFM; type: cell-based, mouse; details: 10 pg/ml and 150 pg/ml; 50 cells/cm^2 in KSFM, 6 days
Method: Single cell expanded murine limbal epithelial cells were seeded at 50 cells/cm^2 in KSFM and cultured for 6 days. […] Cells seeded at 20,000 cells/cm^2 in KSFM became enlarged.

[4] = test system: murine limbal epithelial progenitor cells; test: α-SMA expression in clonal cultures of murine limbal epithelial progenitor cells; type: cell-based, mouse; details: 5 ng/ml in KSFM; low seeding density (500 cells/cm^2)
Method: In clonal cultures of murine limbal epithelial progenitor cells, expression of α-SMA, a marker for myofibroblasts, was not detected when clonally expanded murine limbal epithelial cells were seeded at low density (500 cells/cm^2), but increasingly detected when cells were seeded at the intermediate (5,000 cells/cm^2) and high seeding densities (50,000 cells/cm^2). Cells expressing α-SMA were larger and squamous and could also express p63 in the nucleus. […] Under these conditions, expression of S100A shifted from cytoplasm to the nucleus, signaling of Smad 4 moved from cytoplasm to the nucleus, expression of […] moved from the intercellular junction to the cytoplasm and the perinucleus, the signaling of β-catenin moved from the intercellular junctions to the nucleus), and the signaling of LEF-1 also moved from the cytoplasm to the nucleus.

[5] = test system: Smad2; test: Nuclear accumulation of Smad2 in rhesus monkey keratocytes; type: cell-based; details: 4 ng/ml added in KSFM for 48 hours (19.3±5.1% in KSFM alone)
Text: Three rhesus monkeys (Macaca Mulatta), 4 years old, and rabbit and mouse cornea were obtained from an approved tissue-sharing program after euthanasia. An entire anterior corneoscleral segment was removed from the globe by cutting near the limbus with Wescott's scissors. A central cornea was obtained with an 8.0 mm Barron's trephine and immediately transferred to KSFM medium (cat# 17005-042, GIBCO Invitrogen corporation, Carlsbad, Calif.). After removing Descemet's membrane and the corneal endothelium, the corneal epithelium was removed by dispase digestion for 16 h at 4° C. and the remaining corneal stroma was incubated at 37° C. for 16 h in 2.5 ml of DMEM containing 1 mg/ml collagenase A, 20 mM HEPES, 50 μg/ml gentamicin and 1.25 μg/ml amphotericin in a plastic dish. Afterwards, corneal stromal cells were resuspended in 1 ml of KSFM, centrifuged to remove residual matrices, resuspended in KSFM, and seeded on plastic dishes in KSFM or DMEM containing insulin, transferrin, and selenium supplement (DMEM/ITSG) (cat# 41400-045, GIBCO, Carlsbad, Calif.) or 10% FBS (DMEM/10% FBS).
When the primary culture on plastic reached 80% confluence, cells were rendered into single cells by incubation in BSS containing 0.25% trypsin/1 mM EDTA at 37° C. for 1 to 5 minutes, and the enzymatic reaction was stopped by adding soybean-trypsin inhibitor. […]

[6] = test system: Smad-mediated TGF-β signaling; test: Immunolocalization of Smad 2 and Smad 4 in murine keratocytes; type: cell-based, mouse; details: 10 ng/ml, cells on plastic in DMEM/ITS (16% without TGF-β1)
Method: Isolation and Culture of Keratocytes on Plastic or AM—Albino mice eyes were enucleated by forceps, washed profusely in PBS, and incubated in DMEM containing 20 mM HEPES, 15 mg/ml dispase II (Roche, Indianapolis, Ind.) and 100 mM sorbitol at 4° C. for 18 h (see Espana et al., Invest Ophthalmol Vis Sci. 44:4275-4281, 2003; Kawakita et al., Invest Ophthalmol Vis Sci. 45:3507-3512, 2004). The entire corneal epithelium loosened by this treatment was subsequently removed by vigorous shaking. Under a dissecting microscope, the corneal stroma was separated from the sclera at the corneoscleral limbus by pressing down the limbus with a 27 G needle while the eye was held with a forcep. Isolated corneal stromas were incubated overnight at 37° C. in DMEM containing 1.25 mg/ml collagenase A (Roche, Indianapolis, Ind.), 50 μg/ml gentamicin and 20 mM HEPES in a non-coated plastic dish until the tissue became “smeared” onto the dish bottom. Digested corneal stromas in collagenase A were centrifuged at 800×g for 5 min. Keratocytes were resuspended in DMEM containing 20 mM HEPES, ITS (5 μg/ml insulin, 5 μg/ml transferrin and 5 ng/ml sodium selenite), 50 μg/ml gentamicin and 1.25 μg/ml amphotericin B with or without 10% FBS. […]

[7] = test system: murine keratocytes; test: α-SMA expression (myofibroblast differentiation) of murine keratocytes; type: cell-based, mouse; details: cells on plastic; 5 days of continuous stimulation with TGF-β1
Method: TGF-β1 Challenge and Neutralizing Antibody—To assess whether TGF-β1 affected the cell phenotype, triggered Smad 2 and Smad 4 nuclear translocation, and differentiated keratocytes into myofibroblasts, 10 ng/ml human recombinant TGF-β1 (Sigma, St Louis, Mo.) was added to serum-free DMEM/ITS cells for 3 h or 5 days when cells expanded on AM were passed to 24 well plastic dishes and AM inserts, respectively. In addition, primary keratocytes were seeded and cultured on AM or plastic for 3 days in DMEM/ITS or DMEM/10% FBS for 24 h, of which the latter was treated with or without 10 μg of a monoclonal antibody neutralizing TGF-β1, -β2, and -β3 (R&D Systems, Minneapolis, Minn.) per ml of DMEM medium for 48 h before adenoviral transfection.
To confirm that TGF-β was indeed responsible for Smad signaling in DMEM/10% FBS, a neutralizing antibody to three TGF-β isoforms was added to the plastic cultures. Nuclear translocation of Smad 4 was prevented. […] Thirty-nine percent of cells cultured on plastic differentiated into α-SMA-expressing myofibroblasts, but no cell on AM expressed α-SMA even after 5 days of continuous stimulation with TGF-β1.

[8] = test system: FKHRL1; test: Western blot of FKHRL1 phosphorylation in limbal epithelial cells expanded on intact AM; type: cell-based, human
[9] = test system: Akt; test: Western blot of Akt phosphorylation in limbal epithelial cells expanded on intact AM; type: cell-based, human
[10] = test system: p44/42 MAPK; details: 10 μM; cited from earlier work
[11] = test system: p44/42 MAPK; test: Western blot of p44/42 MAPK phosphorylation in limbal epithelial cells expanded on intact AM; type: cell-based, human
[12] = after 17 days of treatment at 50 μM
[13] = after 17 days of treatment at 10 μM

Compound: hyaluronic acid [HA]
suppressive effect on TGF-β1 promoter activity after pretreatment with HAse [1]: lost

Compound: O=c1cc(N2CCOCC2)oc2c(-c3ccccc3)cccc12 [LY294002]
epithelial outgrowth ([2]; 5 μM, up to 17 days): not significantly inhibited
epithelial outgrowth ([2]; 10 μM, up to 17 days): not significantly inhibited
time to re-initiation of outgrowth after switch to fresh medium [2, 12]: 2 days
time to reach ~80% confluence after removal of inhibitor [2, 12]: 30 days

Compound: TGF-β1: human recombinant TGF-β1 (Sigma)
clonal expansion [3]: dose-dependently suppressed
α-SMA expression [4]: upregulated
percentage of nuclear accumulation of Smad2 [5]: 34.7±4.9%
cells with nuclear localization of Smad 4 ([6]; 3 h): 67%
cells with nuclear localization of Smad 4 ([6]; 5 days): 85%
cells differentiated into α-SMA-expressing myofibroblasts [7]: Thirty-nine

Compound: N#CC(=C(/N)Sc1ccccc1N)/C(C#N)=C(\N)Sc1ccccc1N [U0126]
phosphorylation of FKHRL1 at Thr32 ([8]; 10 μM): decreased
day at which epithelial outgrowth was noted / started ([2]; 10 μM): 8 days
average outgrowth area at day 17 ([2]; 10 μM, day 17): 17.0±3.0 mm^2
epithelial outgrowth ([2]; 10 μM, up to 17 days): almost halted
time to re-initiation of outgrowth after switch to fresh medium [2, 13]: 2 days
time to reach ~80% confluence after removal of inhibitor [2, 13]: 25 days
phosphorylation of Akt at Ser473 ([9]; 10 μM): decreased
phosphorylation of Akt at Thr308 ([9]; 10 μM): eliminated
p44/42 MAPK phosphorylation in many cells [10]: completely inhibited
phosphorylation of p44/42 MAPK (Thr202 and Tyr204) ([11]; 10 μM): abolished

epithelial outgrowth ([2]; 50 μM): completely inhibited
Compound: CCOC(=O)c1ccc2[nH]c3c(OC)c4[nH]c5ccc(C(=O)OCC)cc5c4cc3c2c1 [SR13668]
Thr32 phosphorylation of FKHRL1 ([8]; 50 μM): abolished
reduction of the outgrowth rate ([2]; 10 μM, from day 5 to day 11): 50%
reduction of the outgrowth rate ([2]; 10 μM, from day 11 on): 60%
time to re-initiation of outgrowth after switch to fresh medium [2, 12]: 2 days
time to reach ~80% confluence after removal of inhibitor [2, 12]: 30 days
phosphorylation of Akt at Thr308 and Ser473 ([9]; 50 μM): abolished
p44/42 MAPK phosphorylation ([11]; 50 μM): did not change
